Laboratory results as given in the kinase profiling compilation of Christmann-Franck et al. (2016).

Key:
Assay in all cases: radiometric filter-binding kinase assay
BTK (human) = BTK (human) (UniProt Q06187)
BRSK1 (human) = BRSK1 (human) (UniProt Q8TDC3)
PRKACA (human) = PRKACA (human) (UniProt P17612)
MARK2 (human) = MARK2 (human) (UniProt Q7KZI7)
INSR (human) = INSR (human) (UniProt P06213)
MKNK1 (human) = MKNK1 (human) (UniProt Q9BUB5)
CaMK1 (human) = CaMK1 (human) (UniProt Q14012)
CAMKK2 (human) = CAMKK2 (human) (UniProt Q96RR4)
PHKG1 (human) = PHKG1 (human) (UniProt Q16816)
EPHA4 (human) = EPHA4 (human) (UniProt P54764)
CSK (human) = CSK (human) (UniProt P41240)
EPHB2 (human) = EPHB2 (human) (UniProt P29323)
INSRR (human) = INSRR (human) (UniProt P14616)
PRKCA (human) = PRKCA (human) (UniProt P17252)
SRPK1 (human) = SRPK1 (human) (UniProt Q96SB4)
CDK2 CCNA2 (human) = CDK2 CCNA2 (human) (UniProt P20248+P24941)
MAPKAPK2 (human) = MAPKAPK2 (human) (UniProt P49137)
MAP2K1 (human) = MAP2K1 (human) (UniProt Q02750)
ERBB4 (human) = ERBB4 (human) (UniProt Q15303)
PRKAA1 or PRKAA2 (rat) = settings: accession and sequence are those of the human protein
PAK7 (human) = PAK7 (human) (UniProt Q9P286)
JAK2 JH1 JH2 (human) = JAK2 JH1 JH2 (human) (UniProt O60674)
HIPK3 (human) = HIPK3 (human) (UniProt Q9H422)
LCK (mouse) = settings: accession and sequence are those of the human protein
MARK1 (human) = MARK1 (human) (UniProt Q9P0L2)
RIPK2 (human) = RIPK2 (human) (UniProt O43353)
MST4 (human) = MST4 (human) (UniProt Q9P289)
EPHA2 (human) = EPHA2 (human) (UniProt P29317)
DYRK2 (human) = DYRK2 (human) (UniProt Q92630)
MAPK15 (human) = MAPK15 (human) (UniProt Q8TD08)
MINK1 (human) = MINK1 (human) (UniProt Q8N4C8)
NUAK1 (human) = NUAK1 (human) (UniProt O60285)
RPS6KA5 KD1 KD2 (human) = RPS6KA5 KD1 KD2 (human) (UniProt O75582)
NEK6 (human) = NEK6 (human) (UniProt Q9HC98)
NEK2 (human) = NEK2 (human) (UniProt P51955)

Chain of MAPK15 (human) (Q8TD08 whole entry, looked up): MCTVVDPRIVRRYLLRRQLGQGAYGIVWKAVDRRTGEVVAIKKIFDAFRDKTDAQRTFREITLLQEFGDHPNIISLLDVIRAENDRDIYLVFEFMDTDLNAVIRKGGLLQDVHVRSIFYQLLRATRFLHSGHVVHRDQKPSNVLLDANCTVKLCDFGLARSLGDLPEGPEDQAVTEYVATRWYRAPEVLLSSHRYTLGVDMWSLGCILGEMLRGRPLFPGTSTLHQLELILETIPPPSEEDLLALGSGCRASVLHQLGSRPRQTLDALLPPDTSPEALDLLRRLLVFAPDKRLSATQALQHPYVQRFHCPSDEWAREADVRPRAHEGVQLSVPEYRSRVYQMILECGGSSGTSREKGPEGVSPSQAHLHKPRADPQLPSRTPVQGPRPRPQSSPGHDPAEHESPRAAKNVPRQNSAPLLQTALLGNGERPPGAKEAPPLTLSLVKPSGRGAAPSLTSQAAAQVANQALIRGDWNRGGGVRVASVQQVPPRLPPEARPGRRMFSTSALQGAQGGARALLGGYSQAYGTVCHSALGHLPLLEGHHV
Chain of RPS6KA5 KD1 KD2 (human) (O75582 whole entry, looked up): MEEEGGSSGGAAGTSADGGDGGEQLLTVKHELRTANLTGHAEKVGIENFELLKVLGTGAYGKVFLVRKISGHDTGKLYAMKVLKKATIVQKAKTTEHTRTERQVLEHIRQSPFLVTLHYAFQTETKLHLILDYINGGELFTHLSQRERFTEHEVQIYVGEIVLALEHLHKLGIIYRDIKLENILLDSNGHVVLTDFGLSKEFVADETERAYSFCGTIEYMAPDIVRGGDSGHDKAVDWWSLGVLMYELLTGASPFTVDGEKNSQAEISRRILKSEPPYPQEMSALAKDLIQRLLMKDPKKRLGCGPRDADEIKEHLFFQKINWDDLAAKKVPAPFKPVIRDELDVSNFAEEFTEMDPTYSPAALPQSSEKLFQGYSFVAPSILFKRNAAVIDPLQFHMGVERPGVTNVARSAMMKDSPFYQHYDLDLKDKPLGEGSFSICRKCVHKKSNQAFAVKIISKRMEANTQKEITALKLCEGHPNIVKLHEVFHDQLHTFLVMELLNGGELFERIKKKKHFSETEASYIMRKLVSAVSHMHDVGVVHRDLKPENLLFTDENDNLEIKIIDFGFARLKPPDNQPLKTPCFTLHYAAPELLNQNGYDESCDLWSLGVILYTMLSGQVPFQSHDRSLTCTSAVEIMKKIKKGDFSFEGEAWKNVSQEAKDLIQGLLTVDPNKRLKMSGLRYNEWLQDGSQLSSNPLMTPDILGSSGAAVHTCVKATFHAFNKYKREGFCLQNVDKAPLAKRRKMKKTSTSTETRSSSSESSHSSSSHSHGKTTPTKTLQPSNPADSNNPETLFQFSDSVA
Chain of MAP2K1 (human) (Q02750 whole entry, looked up): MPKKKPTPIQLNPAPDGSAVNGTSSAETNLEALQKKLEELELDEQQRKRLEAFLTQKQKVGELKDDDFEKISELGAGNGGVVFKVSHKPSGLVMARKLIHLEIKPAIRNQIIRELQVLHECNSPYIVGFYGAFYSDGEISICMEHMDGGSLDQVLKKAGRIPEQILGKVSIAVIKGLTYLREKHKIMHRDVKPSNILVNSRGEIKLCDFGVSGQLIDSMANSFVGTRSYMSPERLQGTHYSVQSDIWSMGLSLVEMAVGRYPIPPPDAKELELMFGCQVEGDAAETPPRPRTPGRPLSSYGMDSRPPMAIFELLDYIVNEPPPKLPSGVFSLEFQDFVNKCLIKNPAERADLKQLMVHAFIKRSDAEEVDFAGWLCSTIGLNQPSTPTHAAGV
Chain of SRPK1 (human) (Q96SB4 whole entry, looked up): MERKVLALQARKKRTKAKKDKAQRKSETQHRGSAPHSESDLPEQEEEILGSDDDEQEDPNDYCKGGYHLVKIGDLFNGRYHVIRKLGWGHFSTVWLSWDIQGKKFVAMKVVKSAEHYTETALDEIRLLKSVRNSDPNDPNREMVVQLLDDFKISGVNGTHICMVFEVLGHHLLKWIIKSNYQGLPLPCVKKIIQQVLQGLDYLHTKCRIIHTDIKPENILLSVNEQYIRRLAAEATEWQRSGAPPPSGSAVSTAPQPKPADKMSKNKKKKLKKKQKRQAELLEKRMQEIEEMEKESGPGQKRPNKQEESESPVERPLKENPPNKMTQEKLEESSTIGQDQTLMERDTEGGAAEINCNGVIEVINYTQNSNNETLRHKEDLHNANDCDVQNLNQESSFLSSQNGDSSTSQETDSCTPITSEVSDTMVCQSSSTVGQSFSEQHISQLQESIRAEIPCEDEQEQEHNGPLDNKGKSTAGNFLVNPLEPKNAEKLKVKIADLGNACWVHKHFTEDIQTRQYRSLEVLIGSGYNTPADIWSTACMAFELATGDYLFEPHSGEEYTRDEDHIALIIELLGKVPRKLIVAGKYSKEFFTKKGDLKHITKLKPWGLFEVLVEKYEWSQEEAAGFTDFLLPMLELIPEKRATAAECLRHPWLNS
Chain of DYRK2 (human) (Q92630 whole entry, looked up): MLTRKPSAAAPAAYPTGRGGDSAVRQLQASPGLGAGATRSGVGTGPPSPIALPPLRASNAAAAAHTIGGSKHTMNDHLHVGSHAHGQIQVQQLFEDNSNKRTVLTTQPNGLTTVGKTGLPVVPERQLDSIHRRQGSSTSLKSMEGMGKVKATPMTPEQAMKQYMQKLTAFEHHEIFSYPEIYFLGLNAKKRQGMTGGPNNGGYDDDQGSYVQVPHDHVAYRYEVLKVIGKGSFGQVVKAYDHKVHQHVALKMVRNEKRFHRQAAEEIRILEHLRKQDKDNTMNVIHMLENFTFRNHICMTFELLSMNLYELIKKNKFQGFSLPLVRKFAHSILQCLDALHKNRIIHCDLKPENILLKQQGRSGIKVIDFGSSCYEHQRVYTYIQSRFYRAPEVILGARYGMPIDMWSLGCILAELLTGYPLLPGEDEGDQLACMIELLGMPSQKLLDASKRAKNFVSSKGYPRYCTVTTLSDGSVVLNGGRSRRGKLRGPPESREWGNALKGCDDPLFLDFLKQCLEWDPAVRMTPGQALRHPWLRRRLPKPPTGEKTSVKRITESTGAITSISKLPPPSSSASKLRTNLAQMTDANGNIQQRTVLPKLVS
Chain of CAMKK2 (human) (Q96RR4 whole entry, looked up): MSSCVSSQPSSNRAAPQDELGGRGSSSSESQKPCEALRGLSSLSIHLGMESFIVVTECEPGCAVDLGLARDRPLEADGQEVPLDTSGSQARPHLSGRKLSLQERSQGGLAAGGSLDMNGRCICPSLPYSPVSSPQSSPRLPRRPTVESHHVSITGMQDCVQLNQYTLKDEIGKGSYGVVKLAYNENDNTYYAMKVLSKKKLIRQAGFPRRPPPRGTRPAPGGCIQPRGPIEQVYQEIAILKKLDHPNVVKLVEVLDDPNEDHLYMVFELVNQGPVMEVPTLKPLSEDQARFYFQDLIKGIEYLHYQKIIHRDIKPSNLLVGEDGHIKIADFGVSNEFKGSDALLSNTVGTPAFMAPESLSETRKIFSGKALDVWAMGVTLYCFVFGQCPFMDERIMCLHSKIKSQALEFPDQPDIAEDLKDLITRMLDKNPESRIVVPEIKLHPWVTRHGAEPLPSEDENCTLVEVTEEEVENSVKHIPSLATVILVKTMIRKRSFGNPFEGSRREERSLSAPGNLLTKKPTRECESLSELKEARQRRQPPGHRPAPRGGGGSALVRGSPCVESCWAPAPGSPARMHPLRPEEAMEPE
Chain of INSRR (human) (P14616 whole entry, looked up): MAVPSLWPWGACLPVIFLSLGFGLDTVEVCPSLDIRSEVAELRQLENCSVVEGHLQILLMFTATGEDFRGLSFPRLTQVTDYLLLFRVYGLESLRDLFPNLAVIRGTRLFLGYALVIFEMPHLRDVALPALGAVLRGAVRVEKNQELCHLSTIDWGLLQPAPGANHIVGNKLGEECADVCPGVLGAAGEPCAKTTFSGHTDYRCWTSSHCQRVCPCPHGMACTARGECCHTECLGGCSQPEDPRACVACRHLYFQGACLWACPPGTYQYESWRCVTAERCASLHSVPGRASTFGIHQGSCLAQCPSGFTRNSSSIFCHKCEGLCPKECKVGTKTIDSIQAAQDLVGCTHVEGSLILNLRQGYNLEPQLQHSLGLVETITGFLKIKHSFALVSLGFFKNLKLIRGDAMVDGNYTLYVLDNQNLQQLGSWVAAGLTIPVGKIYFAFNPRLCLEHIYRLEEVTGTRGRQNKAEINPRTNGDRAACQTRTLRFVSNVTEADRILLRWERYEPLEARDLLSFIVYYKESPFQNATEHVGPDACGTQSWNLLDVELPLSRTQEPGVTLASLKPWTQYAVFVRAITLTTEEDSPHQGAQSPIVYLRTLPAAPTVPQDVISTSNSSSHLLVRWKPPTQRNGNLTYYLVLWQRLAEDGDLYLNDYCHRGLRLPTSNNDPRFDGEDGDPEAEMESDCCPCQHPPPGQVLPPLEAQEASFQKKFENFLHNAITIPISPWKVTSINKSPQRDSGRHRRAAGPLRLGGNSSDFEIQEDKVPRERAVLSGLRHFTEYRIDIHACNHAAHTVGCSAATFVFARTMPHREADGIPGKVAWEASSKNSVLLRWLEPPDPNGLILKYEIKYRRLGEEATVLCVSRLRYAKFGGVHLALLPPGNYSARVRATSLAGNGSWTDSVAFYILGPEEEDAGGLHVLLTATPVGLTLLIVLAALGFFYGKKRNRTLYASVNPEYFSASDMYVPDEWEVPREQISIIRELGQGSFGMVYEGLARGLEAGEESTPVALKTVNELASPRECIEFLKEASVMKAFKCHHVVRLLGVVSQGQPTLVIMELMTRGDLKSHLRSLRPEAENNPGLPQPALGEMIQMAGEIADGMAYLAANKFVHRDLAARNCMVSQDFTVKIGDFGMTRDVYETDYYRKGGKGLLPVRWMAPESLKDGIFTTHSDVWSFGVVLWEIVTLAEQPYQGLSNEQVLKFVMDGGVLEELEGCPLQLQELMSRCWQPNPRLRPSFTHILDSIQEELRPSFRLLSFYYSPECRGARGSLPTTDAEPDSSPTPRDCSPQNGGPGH

Q: Which results are given for N#Cc1c(O)c2c(-c3ccc(-c4ccccc4O)cc3)csc2[nH]c1=O?
A: residual activity (BTK (human); compound 10.0 µM): 52%; residual activity (BTK (human); compound 100.0 µM): 10%; residual activity (BRSK1 (human); compound 10.0 µM): 76%; residual activity (BRSK1 (human); compound 100.0 µM): 51%; residual activity (PRKACA (human); compound 10.0 µM): 89%; residual activity (PRKACA (human); compound 50.0 µM): 41%; residual activity (PRKACA (human); compound 100.0 µM): 95%; residual activity (MARK2 (human); compound 10.0 µM): 64%; residual activity (MARK2 (human); compound 100.0 µM): 49%; residual activity (INSR (human); compound 10.0 µM): 103%; residual activity (INSR (human); compound 100.0 µM): 69%; residual activity (MKNK1 (human); compound 10.0 µM): 104%; residual activity (MKNK1 (human); compound 50.0 µM): 66%; residual activity (MKNK1 (human); compound 100.0 µM): 93%; residual activity (CaMK1 (human); compound 10.0 µM): 68%; residual activity (CaMK1 (human); compound 50.0 µM): 45%; residual activity (CaMK1 (human); compound 100.0 µM): 7%; residual activity (CAMKK2 (human); compound 10.0 µM): 87%; residual activity (CAMKK2 (human); compound 50.0 µM): 48%; residual activity (CAMKK2 (human); compound 100.0 µM): 78%; residual activity (PHKG1 (human); compound 10.0 µM): 96%; residual activity (PHKG1 (human); compound 50.0 µM): 65%; residual activity (PHKG1 (human); compound 100.0 µM): 73%; residual activity (EPHA4 (human); compound 10.0 µM): 93%; residual activity (EPHA4 (human); compound 100.0 µM): 64%; residual activity (CSK (human); compound 10.0 µM): 79%; residual activity (CSK (human); compound 50.0 µM): 46%; residual activity (CSK (human); compound 100.0 µM): 82%; residual activity (EPHB2 (human); compound 10.0 µM): 93%; residual activity (EPHB2 (human); compound 100.0 µM): 13%; residual activity (INSRR (human); compound 10.0 µM): 88%; residual activity (INSRR (human); compound 50.0 µM): 90%; residual activity (INSRR (human); compound 100.0 µM): 51%; residual activity (PRKCA (human); compound 10.0 µM): 94%; residual activity (PRKCA (human); compound 50.0 µM): 60%; residual activity (PRKCA (human); compound 100.0 µM): 90%; residual activity (SRPK1 (human); compound 10.0 µM): 107%; residual activity (SRPK1 (human); compound 50.0 µM): 42%; residual activity (SRPK1 (human); compound 100.0 µM): 35%; residual activity (CDK2 CCNA2 (human); compound 10.0 µM): 100%; residual activity (CDK2 CCNA2 (human); compound 50.0 µM): 84%; residual activity (CDK2 CCNA2 (human); compound 100.0 µM): 121%; residual activity (MAPKAPK2 (human); compound 10.0 µM): 77%; residual activity (MAPKAPK2 (human); compound 50.0 µM): 32%; residual activity (MAPKAPK2 (human); compound 100.0 µM): 30%; residual activity (MAP2K1 (human); compound 10.0 µM): 79%; residual activity (MAP2K1 (human); compound 50.0 µM): 27%; residual activity (MAP2K1 (human); compound 100.0 µM): 29%; residual activity (ERBB4 (human); compound 10.0 µM): 33%; residual activity (ERBB4 (human); compound 100.0 µM): 8%; residual activity (PRKAA1 or PRKAA2 (rat); compound 10.0 µM): 135%; residual activity (PRKAA1 or PRKAA2 (rat); compound 50.0 µM): 67%; residual activity (PRKAA1 or PRKAA2 (rat); compound 100.0 µM): 62%; residual activity (PAK7 (human); compound 10.0 µM): 58%; residual activity (PAK7 (human); compound 50.0 µM): 50%; residual activity (PAK7 (human); compound 100.0 µM): 39%; residual activity (JAK2 JH1 JH2 (human); compound 10.0 µM): 83%; residual activity (JAK2 JH1 JH2 (human); compound 100.0 µM): 32%; residual activity (HIPK3 (human); compound 10.0 µM): 97%; residual activity (HIPK3 (human); compound 50.0 µM): 52%; residual activity (HIPK3 (human); compound 100.0 µM): 43%; residual activity (LCK (mouse); compound 10.0 µM): 88%; residual activity (LCK (mouse); compound 50.0 µM): 58%; residual activity (LCK (mouse); compound 100.0 µM): 58%; residual activity (MARK1 (human); compound 10.0 µM): 59%; residual activity (MARK1 (human); compound 100.0 µM): 68%; residual activity (RIPK2 (human); compound 10.0 µM): 110%; residual activity (RIPK2 (human); compound 100.0 µM): 139%; residual activity (MST4 (human); compound 10.0 µM): 74%; residual activity (MST4 (human); compound 50.0 µM): 57%; residual activity (MST4 (human); compound 100.0 µM): 14%; residual activity (EPHA2 (human); compound 10.0 µM): 82%; residual activity (EPHA2 (human); compound 50.0 µM): 64%; residual activity (EPHA2 (human); compound 100.0 µM): 40%; residual activity (DYRK2 (human); compound 10.0 µM): 63%; residual activity (DYRK2 (human); compound 50.0 µM): 84%; residual activity (DYRK2 (human); compound 100.0 µM): 33%; residual activity (MAPK15 (human); compound 10.0 µM): 81%; residual activity (MAPK15 (human); compound 50.0 µM): 36%; residual activity (MAPK15 (human); compound 100.0 µM): 24%; residual activity (MINK1 (human); compound 10.0 µM): 65%; residual activity (MINK1 (human); compound 100.0 µM): 5%; residual activity (NUAK1 (human); compound 10.0 µM): 61%; residual activity (NUAK1 (human); compound 100.0 µM): 10%; residual activity (RPS6KA5 KD1 KD2 (human); compound 10.0 µM): 69%; residual activity (RPS6KA5 KD1 KD2 (human); compound 50.0 µM): 39%; residual activity (RPS6KA5 KD1 KD2 (human); compound 100.0 µM): 42%; residual activity (NEK6 (human); compound 10.0 µM): 104%; residual activity (NEK6 (human); compound 50.0 µM): 94%; residual activity (NEK6 (human); compound 100.0 µM): 137%; residual activity (NEK2 (human); compound 10.0 µM): 73%; residual activity (NEK2 (human); compound 50.0 µM): 52%; residual activity (NEK2 (human); compound 100.0 µM): 19%
